According to patent publication US20240158446A1, “CYCLIC COMPOUND HAVING SELECTIVE INHIBITORY ACTION ON KRAS OVER HRAS AND NRAS” (CHUGAI SEIYAKU KABUSHIKI KAISHA, priority 2021, published 2024):
Like-named read-outs stand apart in the source and are kept apart here.

What was measured:
[1] = system: human lung cancer strain NCI-H441;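 note: cell proliferation inhibition after four days measured by CellTiter-Glo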
[2] = target: GDP-bound NRAS wild-type protein (Homo sapiens, UniProt P01111); assay: Binding to NRAS by surface plasmon resonance (SPR), Single Cycle Kinetics; settings: for NRAS/KRAS (ratio of KD value for NRAS to KD value for KRAS): GDP-bound NRAS wild-type protein vs GDP-bound KRAS wild-type protein
Sequence of GDP-bound NRAS wild-type protein (P01111 whole entry): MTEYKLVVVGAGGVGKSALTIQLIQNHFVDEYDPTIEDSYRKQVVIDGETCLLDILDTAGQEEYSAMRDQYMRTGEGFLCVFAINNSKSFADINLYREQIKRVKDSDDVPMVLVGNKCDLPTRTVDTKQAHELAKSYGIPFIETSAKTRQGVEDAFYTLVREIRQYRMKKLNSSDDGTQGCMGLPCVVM

[3] = target: GDP-bound HRAS wild-type protein (Homo sapiens, UniProt P01112); assay: Binding to HRAS by surface plasmon resonance (SPR), Single Cycle Kinetics; settings: for HRAS/KRAS (ratio of KD value for HRAS to KD value for KRAS): GDP-bound HRAS wild-type protein vs GDP-bound KRAS wild-type protein
Sequence of GDP-bound HRAS wild-type protein (P01112 whole entry): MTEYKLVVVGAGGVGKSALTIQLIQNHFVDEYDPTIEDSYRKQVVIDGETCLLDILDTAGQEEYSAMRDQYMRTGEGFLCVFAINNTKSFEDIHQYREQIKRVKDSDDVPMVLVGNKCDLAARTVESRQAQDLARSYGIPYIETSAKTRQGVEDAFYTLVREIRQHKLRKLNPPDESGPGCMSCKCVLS

[4] = target: GDP-bound KRAS wild-type protein (Homo sapiens, UniProt P01116); assay: Binding to KRAS by surface plasmon resonance (SPR), Single Cycle Kinetics; settings: GDP-bound KRAS wild-type protein, read-out: KRAS KD
Sequence of GDP-bound KRAS wild-type protein (P01116 whole entry): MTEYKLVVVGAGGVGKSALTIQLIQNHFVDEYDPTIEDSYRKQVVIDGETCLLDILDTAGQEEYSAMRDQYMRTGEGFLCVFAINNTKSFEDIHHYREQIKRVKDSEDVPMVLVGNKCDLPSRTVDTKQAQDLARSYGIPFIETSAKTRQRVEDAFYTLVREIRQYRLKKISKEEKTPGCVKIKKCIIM

[5] = SPR, Single Cycle Kinetics, 1:1 binding model

Row | Structure (SMILES) | IC50 [1] [nM] | Kd [4, 5] [nM] | Kd ([4]; SPR, Single Cycle Kinetics) [nM] | NRAS/KRAS (ratio of KD value for NRAS to KD value for KRAS) ([2]; SPR, KD ratio class) | HRAS/KRAS (ratio of KD value for HRAS to KD value for KRAS) ([3]; SPR, KD ratio class) | NRAS/KRAS (ratio of KD value for NRAS to KD value for KRAS) ([2]; SPR) | HRAS/KRAS (ratio of KD value for HRAS to KD value for KRAS) ([3]; SPR) | further results
1 | CC[C@H](C)[C@@H]1NC(=O)[C@H](COC)N(C)C(=O)C[C@@H](C(=O)N2CCCCC2)N(C)C(=O)[C@H](C2CCCC2)N(C)C(=O)C2(CC(C)(C)C2)NC(=O)[C@@H]2C[C@@H](OC(C)C)CN2C(=O)[C@H](CCc2cc(F)c(C(F)(F)F)c(F)c2)NC(=O)CN(C)C(=O)[C@H](Cc2ccc(C)cc2)N2CC/C=C\C[C@@H](C2=O)N(C)C(=O)CN(C)C1=O [PP2669] | 18.7 | – | – | – | – | – | – | NRAS/KRAS (ratio of KD value with respect to GDP-bound NRAS wild-type protein to KD value with respect to KRAS) ([2]; SPR KD ratio NRAS/KRAS, class symbols): A (a compound having 10 or more and less than 20 is denoted as A); HRAS/KRAS (ratio of KD value with respect to GDP-bound HRAS wild-type protein to KD value with respect to KRAS) ([3]; SPR KD ratio HRAS/KRAS, class symbols): A (a compound having 10 or more and less than 20 is denoted as A); Kd ([4]; SPR Single Cycle Kinetics, 1:1 binding model): 0.29 nM
2 | CC[C@H](C)[C@@H]1NC(=O)[C@H](CC2CC2)N(C)C(=O)C[C@@H](C(=O)N(C)C)N(C)C(=O)[C@H](C2CCCC2)N(C)C(=O)C2(CCC2)NC(=O)[C@H](CCC(F)F)N(C)C(=O)[C@H](CCc2cc(F)c(C(F)(F)F)c(F)c2)NC(=O)CN(C)C(=O)[C@H](Cc2ccc(C(F)(F)F)cc2)N2CC/C=C\C[C@@H](C2=O)N(C)C(=O)CN(C)C1=O [PP1402] | 82 | 0.3 | – | A (a compound having 10 or more and less than 20 is denoted as A) | A (a compound having 10 or more and less than 20 is denoted as A) | – | – | –
3 | CCCN1CC(=O)NC2(CCC2)C(=O)N(C)[C@@H](C2CCCC2)C(=O)N(C)[C@H](C(=O)N(C)C)CC(=O)N(C)[C@@H](CC)C(=O)N[C@@H]([C@@H](C)CC)C(=O)N(C)CC(=O)N(C)[C@H]2C/C=C\CCN(C2=O)[C@@H](Cc2ccc(C(F)(F)F)cc2)C(=O)N(C)CC(=O)N[C@@H](CCc2cc(F)c(C(F)(F)F)c(F)c2)C1=O [PP1141] | 424 | – | 0.32 | – | – | AA (a compound having 20 or more is denoted as AA) | A (a compound having 10 or more and less than 20 is denoted as A) | –
4 | CCO[C@@H]1C[C@H]2C(=O)NC3(CCC3)C(=O)N(C)[C@@H](C3CCCC3)C(=O)N(C)[C@H](C(=O)N3CCOCC3)CC(=O)N(C)[C@@H](CC)C(=O)N[C@@H]([C@@H](C)CC)C(=O)N3CC[C@H]3C(=O)N(C)[C@H]3C[C@@H](C)[C@@H](C)CN(C3=O)[C@@H](Cc3ccc(C(F)(F)F)cc3)C(=O)N(C)CC(=O)N[C@@H](CCc3ccc(C(F)(F)F)c(Cl)c3)C(=O)N2C1 [PP1357] | 5.4 | 0.13 | – | A (a compound having 10 or more and less than 20 is denoted as A) | B (a compound having 3 or more and less than 10 is denoted as B) | – | – | –

Second part, led by results:

Row | IC50 [1] [nM] | Kd [4, 5] [nM] | Kd ([4]; SPR, Single Cycle Kinetics) [nM] | Structure (SMILES) | NRAS/KRAS (ratio of KD value for NRAS to KD value for KRAS) ([2]; SPR, KD ratio class) | HRAS/KRAS (ratio of KD value for HRAS to KD value for KRAS) ([3]; SPR, KD ratio class) | NRAS/KRAS (ratio of KD value for NRAS to KD value for KRAS) ([2]; SPR) | HRAS/KRAS (ratio of KD value for HRAS to KD value for KRAS) ([3]; SPR) | further results
5 | 13.4 | 0.11 | – | CCO[C@@H]1C[C@H]2C(=O)NC3(CCC3)C(=O)N(C)[C@@H](C3CCCC3)C(=O)N(C)[C@H](C(=O)N(C)C)CC(=O)N(C)[C@@H](CC3CCC3)C(=O)N[C@@H]([C@@H](C)CC)C(=O)N(C)CC(=O)N(C)[C@H]3C/C=C\CCN(C3=O)[C@@H](CC3CCC(F)(F)CC3)C(=O)N(C)CC(=O)N[C@@H](CCc3cc(F)c(C(F)(F)F)c(F)c3)C(=O)N2C1 [PP1455, (2S,8S,12R,14S,20S,23S,27S,30S,36S,38Z)-27-(cyclobutylmethyl)-20-cyclopentyl-2-[(4,4-difluorocyclohexyl)methyl]-8-[2-[3,5-difluoro-4-(trifluoromethyl)phenyl]ethyl]-12-ethoxy-N,N,4,19,22,26,32,35-octamethyl-30-[(1S)-1-methylpropyl]-3,6,9,15,18,21,25,28,31,34,42-undecaoxo-spiro[1,4,7,10,16,19,22,26,29,32,35-undecazatricyclo[34.5.1.0^10,14]dotetracont-38-ene-17,1′-cyclobutane]-23-carboxamide] | A (a compound having 10 or more and less than 20 is denoted as A) | A (a compound having 10 or more and less than 20 is denoted as A) | – | – | –
6 | 34.5 | 0.24 | – | CCO[C@@H]1C[C@H]2C(=O)NC3(CCC3)C(=O)N(C)[C@@H](C3CCCC3)C(=O)N(C)[C@H](C(=O)N(C)CCOC)CC(=O)N(C)[C@@H](CC3CC3)C(=O)N[C@@H]([C@@H](C)CC)C(=O)N(C)CC(=O)N(C)[C@H]3C/C=C\CCN(C3=O)[C@@H](Cc3ccc(C(F)(F)F)cc3)C(=O)N(C)CC(=O)N[C@@H](CCc3ccc(Cl)c(Cl)c3)C(=O)N2C1 [PP1329] | AA (a compound having 20 or more is denoted as AA) | A (a compound having 10 or more and less than 20 is denoted as A) | – | – | –
7 | 8.6 | – | 0.11 | CCCOC[C@H]1C(=O)N[C@@H]([C@@H](C)CC)C(=O)N(C)CC(=O)N(C)[C@H]2C/C=C\CCN(C2=O)[C@@H](Cc2ccc(C)cc2)C(=O)N(C)CC(=O)N[C@@H](CCc2ccc(C(F)(F)F)c(OC)c2)C(=O)N2C[C@@H](C)C[C@H]2C(=O)NC2(CC(C)(C)C2)C(=O)N(C)[C@@H](C2CCCC2)C(=O)N(C)[C@H](C(=O)N(C)C)CC(=O)N1C [PP2447] | – | – | A (a compound having 10 or more and less than 20 is denoted as A) | B (a compound having 3 or more and less than 10 is denoted as B) | –
8 | 127 | – | 1.8 | CCO[C@@H]1C[C@H]2C(=O)NC3(CC(C)(C)C3)C(=O)N(C)[C@@H](C(CC)CC)C(=O)N(C)[C@H](C(=O)N(C)C)CC(=O)N(C)[C@@H](C(C)C)C(=O)N[C@@H]([C@@H](C)CC)C(=O)N(C)CC(=O)N(C)[C@H]3C/C=C\CCN(C3=O)[C@@H](CC3CCC(F)(F)CC3)C(=O)N(C)CC(=O)N[C@@H](CCc3ccc(C(F)(F)F)c(OC)c3)C(=O)N2C1 [PP2477] | – | – | A (a compound having 10 or more and less than 20 is denoted as A) | A (a compound having 10 or more and less than 20 is denoted as A) | –
9 | 57.5 | – | 0.18 | CCO[C@@H]1C[C@H]2C(=O)NC3(CCC3)C(=O)N(C)[C@@H](C3CCCC3)C(=O)N(C)[C@H](C(=O)N(C)C)CC(=O)N(C)[C@@H](Cc3ccc(Cl)c(Cl)c3)C(=O)N[C@@H]([C@@H](C)CC)C(=O)N(C)CC(=O)N(C)[C@H]3CCCCCN(C3=O)[C@@H](Cc3ccc(F)cc3)C(=O)N(C)CC(=O)N[C@@H](CCc3cc(F)c(C(F)(F)F)c(F)c3)C(=O)N2C1 [PP1158] | – | – | B (a compound having 3 or more and less than 10 is denoted as B) | B (a compound having 3 or more and less than 10 is denoted as B) | –
10 | – | – | 0.2 | CC[C@H](C)[C@@H]1NC(=O)[C@@H]2CCCc3ccc(cc3)C[C@@H](C(=O)N(C)CC(=O)N[C@@H](CCc3ccc(C(F)(F)F)c(OC)c3)C(=O)N3C[C@H](OC4CCCC4)C[C@H]3C(=O)NC3(CC(C)(C)C3)C(=O)N(C)[C@@H](C3CCCC3)C(=O)N(C)[C@H](C(=O)N(C)CC)CC(=O)N2C)N2CC/C=C\C[C@@H](C2=O)N(C)C(=O)CN(C)C1=O [PP3086] | – | – | B (a compound having 3 or more and less than 10 is denoted as B) | B (a compound having 3 or more and less than 10 is denoted as B) | IC50 ([1]; read-out: NCI-H441 cell proliferation inhibitory activity, 50% proliferation inhibitory concentration (IC50 value), NCI-H441, four days, CellTiter-Glo): 7.9 nM; ratio of the KD value with respect to GDP-bound NRAS wild-type protein to the KD value with respect to KRAS ([2]; SPR, KD(NRAS)/KD(KRAS)): B (a compound having 3 or more and less than 10 is denoted as B); ratio of the KD value with respect to GDP-bound HRAS wild-type protein to the KD value with respect to KRAS ([3]; SPR, KD(HRAS)/KD(KRAS)): B (a compound having 3 or more and less than 10 is denoted as B)
11 | 18.7 | 0.074 | – | CCO[C@@H]1C[C@H]2C(=O)NC3(CCC3)C(=O)N(C)[C@@H](C3CCCC3)C(=O)N(C)[C@H](C(=O)N(C)C)CC(=O)N(C)[C@@H](CC3CC3)C(=O)N[C@@H]([C@@H](C)CC)C(=O)N(C)CC(=O)N(C)[C@H]3C/C=C\CCN(C3=O)[C@@H](Cc3ccc(C)cc3)C(=O)N(C)CC(=O)N[C@@H](CCc3cc(F)c(C(F)(F)F)c(F)c3)C(=O)N2C1 [PP1407, (2S,8S,12R,14S,20S,23S,27S,30S,36S,38Z)-20-cyclopentyl-27-(cyclopropylmethyl)-8-[2-[3,5-difluoro-4-(trifluoromethyl)phenyl]ethyl]-12-ethoxy-N,N,4,19,22,26,32,35-octamethyl-30-[(1S)-1-methylpropyl]-3,6,9,15,18,21,25,28,31,34,42-undecaoxo-2-(p-tolylmethyl)spiro[1,4,7,10,16,19,22,26,29,32,35-undecazatricyclo[34.5.1.0^10,14]dotetracont-38-ene-17,1′-cyclobutane]-23-carboxamide] | A (a compound having 10 or more and less than 20 is denoted as A) | A (a compound having 10 or more and less than 20 is denoted as A) | – | – | –
